# Data as given in patent US20030099983A1, “Cyclic and substituted immobilized molecular synthesis” (Affymetrix, Inc., priority 1991, published 2003).
# Tested on: monoclonal antibody D32.39
# Conditions: normalized 0 to 100% after background subtraction
# Protocol: Non-specific protein binding to the surface was blocked with 1% BSA/PBS/0.05% Tween 20. The array was incubated with the D32.39 antibody at a concentration of 10 μg/ml for 2 hours, followed by reaction with 10 μg/ml of FITC conjugated anti-mounse antibody (Sigma) for 2 hours at 20° C. Following extensive washing with buffer, the array was scanned in a confocal fluorescence microscope with 488 nm excitation from an argon ion laser (Spectra-Physics). […] The replicates were averaged, and the data sorted according to desired sequences.
row,Substance,relative intensity (normalized fluorescence signal)
1,FLRRQFKVVT,about 100%

# Same assay, conditions: relative fluorescence intensity of the corresponding surface-immobilized peptide (N-acetylated, C-terminal amide link to surface)
row,Substance,Normalized Intensity (%)
1,Ac-FLRRQFKVVT-OH,98%
2,Ac-QFKVVT-OH [Ac-QFKVVT-OH],28%
3,Ac-RQFKVVT-OH [Ac-RQFKVVT-OH],99%
4,Ac-RRQFKVVT-OH,99%

# Same assay, conditions: truncated dynorphin peptides, surface-immobilized, N-acetylated, linked via C-terminal amide; D32.39 10 μg/ml 2 hours; ± SD of min. four replicates; […]
row,Substance,Normalized Intensity (%)
1,FKVV,10 ± 2%
2,FKVVT,13 ± 4%
3,FLRR,6 ± 3%
4,FLRRQ,8 ± 3%
5,FLRRQF,8 ± 3%
6,FLRRQFK,10 ± 3%
7,FLRRQFKV,14 ± 3%
8,FLRRQFKVV,37 ± 15%
9,FLRRQFKVVT,98 ± 1%
10,KVVT,11 ± 2%
11,LRRQ,10 ± 4%
12,LRRQF,10 ± 4%
13,LRRQFK,12 ± 3%
14,LRRQFKV,16 ± 3%
15,LRRQFKVV,44 ± 12%
16,LRRQFKVVT,87 ± 13%
17,QFKV,11 ± 2%
18,QFKVV,17 ± 2%
19,QFKVVT,28 ± 3%
20,RQFK,13 ± 5%
21,RQFKV,16 ± 4%
22,RQFKVV,54 ± 11%
23,RQFKVVT,99 ± 1%
24,RRQF,11 ± 5%
25,RRQFK,12 ± 3%
26,RRQFKV,16 ± 3%
27,RRQFKVV,58 ± 10%
28,RRQFKVVT,99 ± 1%
